ChEMBL document CHEMBL2021886, “Identification of a series of 1,3,4-oxadiazol-2-amines as potent alpha-7 agonists with efficacy in the novel object recognition model of cognition” (Bioorg Med Chem Lett, 2012)

Key:
Liver [1] = test: Clearance in rat liver assessed per gram of tissue; format: ADME, tissue-based; conditions: in vivo
[2] = Ratio of drug level in brain to blood in Lister Hooded rat at 3 mg/kg, po after 3 hrs; format: ADME, organism-based; design: dose 3 mg/kg, route oral
[3] = Blood clearance in Sprague-Dawley rat at 1 mg/kg, iv; format: ADME, organism-based; design: dose 1 mg/kg, route intravenous
Liver [4] = test: Clearance in human liver assessed per gram of tissue; format: ADME, tissue-based
[5] = Drug uptake in Lister Hooded rat blood at 3 mg/kg, po after 3 hrs; format: ADME, organism-based; design: dose 3 mg/kg, route oral; conditions: read-out: Drug uptake
[6] = Half life in Sprague-Dawley rat at 1 mg/kg, iv; format: ADME, organism-based; design: dose 1 mg/kg, route intravenous; conditions: in vivo
[7] = Intrinsic permeability of the compound in MDCK cells expressing MDR1; format: ADME, cell-based, Canis lupus familiaris; conditions: dog
Blood = test: Drug level in novel object recognition model of rat blood at 0.1 mg/kg, po; format: ADME, organism-based; design: dose 0.1 mg/kg, route oral; conditions: in vivo, read-out: Drug uptake

For `COc1cc(NC(=O)c2ccccc2F)ccc1-c1nnc(NCCCN2CCCCC2)o1.Cl`, the CLH (Liver [1]) was under 0.5 mL/min/g, the Kp at 3 h [2] was 0.4 and the clearance [3] was 28 mL/min/kg. For the same compound, the CLH (Liver [4]) was under 0.3 mL/min/g, the concentration at 3 h [5] was 270 nM and the half-life [6] was 3.2 h.
With `COc1cc(NC(=O)c2ccccc2F)ccc1-c1nnc(NCCCN2CCCCC2)o1` the Papp [7] was 32.5 ×10⁻⁶ cm/s and the concentration (Blood) was 205 nM.
For `COc1cc(NC(=O)c2ccccc2F)ccc1-c1nnc(NCCCN2CCOCC2)o1.Cl`, the CLH (Liver [1]) was under 0.5 mL/min/g, the Kp at 3 h [2] was 0.12 and the clearance [3] was 41 mL/min/kg. For the same compound, the CLH (Liver [4]) was 0.5 mL/min/g, the concentration at 3 h [5] was 294 nM and the half-life [6] was 0.6 h.
`Cl.O=C(Nc1ccc(-c2nnc(NCCCN3CCCCC3)o2)cc1)c1ccccc1F` showed a CLH (Liver [1]) of under 0.2 mL/min/g, a Kp at 3 h [2] of 1.7 and a clearance [3] of 67 mL/min/kg. The CLH (Liver [4]) was 0.5 mL/min/g, the concentration at 3 h [5] was 205 nM and the half-life [6] was 2.9 h.
